Source: the supplement of paper PMC10307832

What was measured:
Assay in all cases: relative viability (nuclei count vs DMSO), 5 days (fraction); higher = more cells survive
Dactolisib + OSI-027 = compound: Cn1c(=O)n(-c2ccc(C(C)(C)C#N)cc2)c2c3cc(-c4cnc5ccccc5c4)ccc3ncc21 [Dactolisib] + COc1cccc2cc(-c3nc([C@H]4CC[C@H](C(=O)O)CC4)n4ncnc(N)c34)[nH]c12 [OSI-027] (partner 0.5 µM)
Method in brief: (§1)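 One day after seeding in 1536-well plates, lung cancer cell lines were dosed by pin tool. Dosing was either single-drug or a fixed anchor-drug dose plus five library-drug doses (not always all listed) in √10 steps. After 5 days, nuclei were stained in one fix-and-stain step and counted on 4× images, and relative viability is the nuclei count of treated wells over that of vehicle wells, given as the median of duplicate plates.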

Dactolisib + Vorinostat = compound: Cn1c(=O)n(-c2ccc(C(C)(C)C#N)cc2)c2c3cc(-c4cnc5ccccc5c4)ccc3ncc21 [Dactolisib] + O=C(CCCCCCC(=O)Nc1ccccc1)NO [Vorinostat] (partner 1 µM)
Method in brief: as §1

Dactolisib + Linsitinib = compound: Cn1c(=O)n(-c2ccc(C(C)(C)C#N)cc2)c2c3cc(-c4cnc5ccccc5c4)ccc3ncc21 [Dactolisib] + C[C@]1(O)C[C@@H](c2nc(-c3ccc4ccc(-c5ccccc5)nc4c3)c3c(N)nccn32)C1 [Linsitinib] (partner 1 µM)
Method in brief: as §1

Dactolisib + Alpelisib = compound: Cn1c(=O)n(-c2ccc(C(C)(C)C#N)cc2)c2c3cc(-c4cnc5ccccc5c4)ccc3ncc21 [Dactolisib] + Cc1nc(NC(=O)N2CCC[C@H]2C(N)=O)sc1-c1ccnc(C(C)(C)C(F)(F)F)c1 [Alpelisib] (partner 2 µM)
Method in brief: as §1

Cell Line	relative viability (Dactolisib + OSI-027; first compound 0.002 µM)	relative viability (Dactolisib + OSI-027; first compound 0.006325 µM)	relative viability (Dactolisib + OSI-027; first compound 0.02 µM)	relative viability (Dactolisib + OSI-027; first compound 0.06325 µM)	relative viability (Dactolisib + OSI-027; first compound 0.2 µM)	relative viability (Dactolisib + Vorinostat; first compound 0.002 µM)	relative viability (Dactolisib + Vorinostat; first compound 0.006325 µM)	relative viability (Dactolisib + Vorinostat; first compound 0.02 µM)	relative viability (Dactolisib + Vorinostat; first compound 0.06325 µM)	relative viability (Dactolisib + Vorinostat; first compound 0.2 µM)	relative viability (Dactolisib + Linsitinib; first compound 0.002 µM)	relative viability (Dactolisib + Linsitinib; first compound 0.006325 µM)	relative viability (Dactolisib + Linsitinib; first compound 0.02 µM)	relative viability (Dactolisib + Linsitinib; first compound 0.06325 µM)	relative viability (Dactolisib + Linsitinib; first compound 0.2 µM)	relative viability (Dactolisib + Alpelisib; first compound 0.002 µM)	relative viability (Dactolisib + Alpelisib; first compound 0.006325 µM)	relative viability (Dactolisib + Alpelisib; first compound 0.02 µM)	relative viability (Dactolisib + Alpelisib; first compound 0.06325 µM)	relative viability (Dactolisib + Alpelisib; first compound 0.2 µM)
NCI-H1651	0.783	0.665	0.639	0.421	0.323	0.579	0.645	0.547	0.391	0.377	1.03	0.743	0.714	0.321	0.293	1.11	0.79	0.69	0.461	0.422
NCI-H441	0.915	0.725	0.716	0.44	0.344	0.841	0.675	0.802	0.276	0.34	0.594	0.592	0.435	0.343	0.286	1.05	0.74	0.685	0.429	0.271
LCLC-103H	0.509	0.5	0.465	0.519	0.431	0.82	0.863	0.719	0.443	0.412	1.06	1.07	0.934	0.661	0.531	1.01	0.943	0.95	0.673	0.539
LCLC-97TM1	0.673	0.564	0.542	0.717	0.459	0.615	0.655	0.612	0.251	0.311	0.157	0.186	0.208	0.157	0.132	0.304	0.218	0.186	0.134	0.151
NCI-H727	0.519	0.435	0.538	0.47	0.4		1.31	1.16	0.981	1.3	0.271	0.317	0.266	0.213	0.37	0.601	0.525	0.4	0.291	0.304
NCI-H1355	0.436	0.475	0.455	0.328	0.246	0.693	0.608	0.558	0.408	0.295	0.848	0.761	0.733	0.354	0.257	0.941	0.794	0.723	0.385	0.255
HOP-62	0.986	0.881	0.728	0.611	0.492	0.572	0.541	0.543	0.177	0.219	1.04	0.626	0.873	0.447	0.342	1.19	1.09	0.876	0.468	0.323
NCI-H2085	0.737	0.609	0.663	0.319	0.269	0.801	0.742	0.712	0.363	0.329	1.03	0.714	0.636	0.361	0.381	1.05	0.762	0.758	0.437	0.405
